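Five concentrations, 48 hours, 96-well plates. TGI: total growth inhibition.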
system: HOP-92 NSCLC; test: DTP human tumour cell line panel, 48 h

Row | SMILES | TGI [µM]
1 | O=c1[nH]cnc2c1cnn2Cc1cn(CCCCO)nn1 | > 100
2 | Cn1c(=O)c2c(ncn2CCNC(CO)C(O)c2ccc([N+](=O)[O-])cc2)n(C)c1=O (stereo unspecified) | > 100
3 | O=C(Nc1ccccc1)c1cc(S(=O)(=O)NC2=NC(c3ccccc3)c3cc(Cl)ccc3N2)c(SSc2cc(Cl)c(C(=O)Nc3ccccc3)cc2S(=O)(=O)NC2=NC(c3ccccc3)c3cc(Cl)ccc3N2)cc1Cl (stereo unspecified) | > 100
4 | COc1ccc(C2SC(N)=Nc3c2c(C)nn3C(=O)c2ccncc2)cc1OC (stereo unspecified) | > 10
5 | C[C@H]1[C@H]2[C@H]3CC[C@@H]4[C@@]5(C)CC[C@H](O)C(C)(C)[C@@H]5CC[C@@]4(C)[C@]3(C)C[C@H](O)[C@@]2(C)C[C@H]2O[C@]21C | 56.2
6 | O=C(O)CCCc1nc2c(n1Cc1ccccc1)C(=O)c1ccccc1C2=O | > 100
7 | CCOC(=O)NC(Nc1ccc(C)cc1)(C(F)(F)F)C(F)(F)F | > 100
8 | CCOC(=O)CCC(NC(=O)Cc1ccc(Nc2nc3cc(F)c(F)cc3nc2C(=O)OCC)cc1)C(=O)OCC (stereo unspecified) | 82.1
9 | [N-]=[N+]=Nc1c([N+](=O)[O-])c(=O)n(-c2ccccc2)c2ccccc12 | 86.9

system: SF-268 CNS; test: DTP human tumour cell line panel, 48 h

Row | SMILES | TGI [µM]
10 | Cc1ccc(S(=O)(=O)c2[nH]cc(/C(=C\C3CCCCC3)[N+](=O)[O-])c2C2CCCCC2)cc1 | 1.84
11 | Nc1ccc2c(c1)C(=O)N1CCC[C@H]1C(=O)N2 | > 100
12 | Cc1ccc2c(c1)C(=S)N1CSCC1c1nncn1-2 (stereo unspecified) | > 100
13 | CC1(C)C(C#N)C1C1=C(N2CCOCC2)[C@]2(C)C(OC(=O)c3ccccc3)CC[C@@H]2C1 (stereo partly specified) | > 100
14 | COc1cccc(C2c3cc4c(cc3OC(N3CCCCC3)C2C)OCO4)c1O (stereo unspecified) | 99.8
15 | N#Cc1n[nH]n(-c2ccc(Br)cc2)c1=O | > 100
16 | O=C1c2ccccc2C(=O)c2c(NCC(O)CO)ccc(NCC(O)CO)c21 (stereo unspecified) | > 100
17 | COc1cccc(C(=O)Oc2ccc(OS(=O)(=O)c3ccc(C)cc3)cc2)c1C#N | > 100
18 | CC1=C(C)CC2C(=O)N(c3cc(C(C)(C)C)ccc3C(C)(C)C)C(=O)C2C1 (stereo unspecified) | 24.6
19 | N=C(N)C1CN(CCc2c[nH]c3ccccc23)C(=O)NC1=O (stereo unspecified) | > 100
20 | O=[N+]([O-])c1ccc(CN(CCCl)OCCCl)cc1 | > 100
21 | CC1=NN(c2nc(N)nc(/C(C#N)=C\c3ccc([N+](=O)[O-])s3)n2)C(C)(C)C1 | > 100
22 | O=c1[nH]cnc2c1cnn2Cc1cn(CCCCO)nn1 | > 100
23 | CN1CCc2c([nH]c3ccccc23)C1 | > 100
24 | Cn1c(=O)c2c(ncn2CCNC(CO)C(O)c2ccc([N+](=O)[O-])cc2)n(C)c1=O (stereo unspecified) | > 100
25 | CCCNC(=O)NNC(=O)c1c[nH]c2nc(C)ccc2c1=O | > 100
26 | O=C(Nc1ccccc1)c1cc(S(=O)(=O)NC2=NC(c3ccccc3)c3cc(Cl)ccc3N2)c(SSc2cc(Cl)c(C(=O)Nc3ccccc3)cc2S(=O)(=O)NC2=NC(c3ccccc3)c3cc(Cl)ccc3N2)cc1Cl (stereo unspecified) | > 100
27 | COc1ccc(C2SC(N)=Nc3c2c(C)nn3C(=O)c2ccncc2)cc1OC (stereo unspecified) | > 10
28 | CC1CC(OP(=O)(OCc2ccccc2)OCc2ccccc2)[C@@H](OCc2ccccc2)C(OCc2ccccc2)C1OCc1ccccc1 (stereo partly specified) | > 100
29 | CCO/C(O)=C(/C(=N)N1CCOCC1)C(=O)Nc1ccc(F)cc1 | > 100
30 | C[C@H]1[C@H]2[C@H]3CC[C@@H]4[C@@]5(C)CC[C@H](O)C(C)(C)[C@@H]5CC[C@@]4(C)[C@]3(C)C[C@H](O)[C@@]2(C)C[C@H]2O[C@]21C | 36.7
31 | O=C(O)CCCc1nc2c(n1Cc1ccccc1)C(=O)c1ccccc1C2=O | > 100
32 | CCOC(=O)NC(Nc1ccc(C)cc1)(C(F)(F)F)C(F)(F)F | > 100
33 | CCOC(=O)CCC(NC(=O)Cc1ccc(Nc2nc3cc(F)c(F)cc3nc2C(=O)OCC)cc1)C(=O)OCC (stereo unspecified) | > 100
34 | [N-]=[N+]=Nc1c([N+](=O)[O-])c(=O)n(-c2ccccc2)c2ccccc12 | 59.6

system: MDA-MB-231 breast; test: DTP human tumour cell line panel, 48 h

Row | SMILES | TGI [µM]
35 | Cc1ccc(S(=O)(=O)c2[nH]cc(/C(=C\C3CCCCC3)[N+](=O)[O-])c2C2CCCCC2)cc1 | 0.515
36 | Nc1ccc2c(c1)C(=O)N1CCC[C@H]1C(=O)N2 | > 100
37 | Cc1ccc2c(c1)C(=S)N1CSCC1c1nncn1-2 (stereo unspecified) | > 100
38 | CC1(C)C(C#N)C1C1=C(N2CCOCC2)[C@]2(C)C(OC(=O)c3ccccc3)CC[C@@H]2C1 (stereo partly specified) | > 100
39 | COc1cccc(C2c3cc4c(cc3OC(N3CCCCC3)C2C)OCO4)c1O (stereo unspecified) | > 56.7
40 | N#Cc1n[nH]n(-c2ccc(Br)cc2)c1=O | > 100
41 | O=C1c2ccccc2C(=O)c2c(NCC(O)CO)ccc(NCC(O)CO)c21 (stereo unspecified) | > 100
42 | COc1cccc(C(=O)Oc2ccc(OS(=O)(=O)c3ccc(C)cc3)cc2)c1C#N | > 100
43 | CC1=C(C)CC2C(=O)N(c3cc(C(C)(C)C)ccc3C(C)(C)C)C(=O)C2C1 (stereo unspecified) | > 100
44 | N=C(N)C1CN(CCc2c[nH]c3ccccc23)C(=O)NC1=O (stereo unspecified) | > 100
45 | O=[N+]([O-])c1ccc(CN(CCCl)OCCCl)cc1 | > 100
46 | CC1=NN(c2nc(N)nc(/C(C#N)=C\c3ccc([N+](=O)[O-])s3)n2)C(C)(C)C1 | 0.465
47 | O=c1[nH]cnc2c1cnn2Cc1cn(CCCCO)nn1 | > 100
48 | CN1CCc2c([nH]c3ccccc23)C1 | > 100
49 | Cn1c(=O)c2c(ncn2CCNC(CO)C(O)c2ccc([N+](=O)[O-])cc2)n(C)c1=O (stereo unspecified) | > 100
50 | CCCNC(=O)NNC(=O)c1c[nH]c2nc(C)ccc2c1=O | > 100
51 | O=C(Nc1ccccc1)c1cc(S(=O)(=O)NC2=NC(c3ccccc3)c3cc(Cl)ccc3N2)c(SSc2cc(Cl)c(C(=O)Nc3ccccc3)cc2S(=O)(=O)NC2=NC(c3ccccc3)c3cc(Cl)ccc3N2)cc1Cl (stereo unspecified) | > 83.6
52 | COc1ccc(C2SC(N)=Nc3c2c(C)nn3C(=O)c2ccncc2)cc1OC (stereo unspecified) | > 10
53 | CC1CC(OP(=O)(OCc2ccccc2)OCc2ccccc2)[C@@H](OCc2ccccc2)C(OCc2ccccc2)C1OCc1ccccc1 (stereo partly specified) | > 100
54 | CCO/C(O)=C(/C(=N)N1CCOCC1)C(=O)Nc1ccc(F)cc1 | > 100
55 | C[C@H]1[C@H]2[C@H]3CC[C@@H]4[C@@]5(C)CC[C@H](O)C(C)(C)[C@@H]5CC[C@@]4(C)[C@]3(C)C[C@H](O)[C@@]2(C)C[C@H]2O[C@]21C | 36.9
56 | O=C(O)CCCc1nc2c(n1Cc1ccccc1)C(=O)c1ccccc1C2=O | > 100
